Values quoted from earlier work, collected in paper PMC8018465, “Antimicrobial activities of a small molecule compound II-6s against oral streptococci” (Journal of Oral Microbiology, 2021).

System: methicillin-resistant Staphylococcus aureus (MRSA)
Design: method as in PMID 30940910
Settings: cited from earlier work

Which “antimicrobial activity against MRSA” value does the source give for `CC(C)(Cc1ccc2ccccc2c1)NC[C@@H](O)COc1cccc(Cl)c1C#N` [NPS-2143, reference compound] here?
Its value is “bacteriostatic activity”.
